Molecules are shown by their SMILES. Entries after “also recorded” stand apart in the source; their conditions may differ.

Consider 31 compounds from US6462064B1, “Apoptosis inducing adamantyl derivatives and their usage as anti-cancer agents, especially for cervical cancers and dysplasias” (Galderma Research & Development S.N.C., priority 1996, dated 2002).

The assay relates to cancer cells. The assay can be described thus: List of active compounds: types of cancers and precancers active against. Type of assay: cell-based. An excerpt: As discussed, the adamantyl retinoid derivatives according to the invention which induce apoptosis are useful for treating many different types of cancers.
On to `O=C(O)c1ccc2cc(-c3ccc(OC[C@@H](O)CO)c(C45CC6CC(CC(C6)C4)C5)c3)ccc2c1` [Compound 27, (S)-6-[3-(1-adamantyl)-4-(2S,3-dihydroxypropoxy)phenyl]-2-naphthoic acid], for which the “Types of Cancers and Precancers Active Against” value (“Types” for short) is recorded as “leukemia”. The result for `COc1ccc(-c2ccc3cc(C(=O)O)ccc3c2)cc1C12CC3CC(CC(C3)O1)C2` [Compound 39, 6-[3-(2-oxa-1-adamantyl)-4-methoxyphenyl]-2-naphthoic acid] reads “kidney, lymphoma, skin, liver”. Consider `COc1ccc(C(=O)Nc2ccc(C(=O)N3CCOCC3)cc2)cc1C12CC3CC(CC(C3)C1)C2` [Compound 19, N-{4-[N-(3-(1-adamantyl)-4-methoxybenzoyl)amido]benzoyl}morpholide], for which the “Types” value is “kidney, myeloma, prostate, skin”. For `O=C(O)c1ccc2cc(-c3ccc(OCCCO)c(C45CC6CC(CC(C6)C4)C5)c3)ccc2c1` [Compound 23, 6-[3-(1-adamantyl)-4-(3-hydroxypropoxy)phenyl]-2-naphthoic acid], the “Types” value is “breast, leukemia, lymphoma”. In the case of `COC(=O)c1cc(O)c2cc(-c3ccc(OC)c(C45CC6CC(CC(C6)C4)C5)c3)ccc2c1C` [Compound 18, 1-methyl-4-hydroxy-6-[3-(1-adamantyl)-4-methoxyphenyl]-2-naphthoic acid methyl ester], the “Types” value is given as “lymphoma, liver”.

With `COc1cc(C(=O)/C=C/c2ccc(C(=O)O)cc2)ccc1C12CC3CC(CC(C3)C1)C2` [Compound 28, (E) 4-{3-oxo-3-[3-methoxy-4-(1-adamantyl)phenyl]prop-1-enyl}benzoic acid], the “Types” value is on record as “leukemia”. The result for `COCCOCOc1ccc(C(=O)/C=C/c2ccc(C(=O)O)cc2)cc1C12CC3CC(CC(C3)C1)C2` [Compound 29, (E) 4-{3-oxo-3-[4-(2-methoxyethoxymethoxy)-3-(1-adamantyl)phenyl]prop-1-enyl}benzoic acid] reads “brain, leukemia, lung,; also recorded: lymphoma, prostate”; that for `NCCNC(=O)c1ccc2cc(-c3cc4c(c(C56CC7CC(CC(C7)C5)C6)c3)OCO4)ccc2c1` [Compound 48, N-(2-aminoethyl)-{6-[3-(1-adamantyl)-4,5-methylenedioxyphenyl]-2-naphthalenecarboxamide}], “breast, hepatoma, skin”; that for `CC12CC3CC(C1)CC(c1cc(-c4ccc5cc(C(=O)O)ccc5c4)cc4c1OCO4)(C3)C2` [Compound 37, 6-[3-(3-methyl-1-adamantyl)-4,5-methylenedioxyphenyl]-2-naphthoic acid], “kidney, leukemia, lung,; also recorded: lymphoma, skin”.

As for `COc1ccc(-c2ccc3cc(C(=O)NCCN)ccc3c2)cc1C12CC3CC(CC(C3)C1)C2` [Compound 45, N-(2-aminoethyl)-{6-[3-(1-adamantyl)-4-methoxyphenyl]-2-naphthalenecarboxamide]], the “Types” value was “bladder, kidney, prostate,; also recorded: leukemia, breast, lung, neuro-; also recorded: blastoma, hepatoma, pancreas,; also recorded: cervix skin”. For `COc1ccc(-c2ccc3cc(C(=O)N4CCCNCC4)ccc3c2)cc1C12CC3CC(CC(C3)C1)C2` [Compound 44, N-{6-[3-(1-adamantyl)-4-methoxyphenyl]-2-naphthalenecarboxoyl}homopiperazide], the “Types” value is given as “bladder, kidney, epidermal,; also recorded: leukemia lung, neuroblastoma,; also recorded: hepatoma, cervix, skin”. For the compound `O=C(O)c1ccc(OC(=O)c2ccc(OCC(O)CO)c(C34CC5CC(CC(C5)C3)C4)c2)cc1` (stereo not shown) [Compound 33, 4-carboxyphenyl ester of 3-(1-adamantyl)-4-(2,3-dihydroxyproproxy)benzoic acid], the “Types” value is “leukemia, skin”. The result for `COc1ccc(C(=O)C#Cc2ccc(C(=O)O)cc2)cc1C12CC3CC(CC(C3)C1)C2` [Compound 8, 4-{3-oxo-3-[3-(1-adamantyl)-4-methoxyphenyl]-1-propynyl}benzoic acid] reads “brain, breast, leukemia, lung,; also recorded: lymphoma, skin, liver”. The result for `O=C(O)c1ccc2cc(-c3cc4c(c(C56CC7CC(CC(C7)O5)C6)c3)OCO4)ccc2c1` [Compound 38, 6-[3-(2-oxa-1-adamantyl)-4,5-methylenedioxyphenyl]-2-naphthoic acid] reads “leukemia, skin”; that for `CC12CC3CC(C1)CC(c1cc(-c4ccc5cc(C(=O)O)ccc5c4)ccc1O)(C3)C2` [Compound 49, 6-[3-(3-methyl-1-adamantyl)-4-hydroxyphenyl]-2-naphthalenecarboxylic acid], “breast, neuroblastoma, leukemia”; that for `CCC1OC(=O)C(C)C(OC2CC(C)(OC)C(OC(=O)c3ccc4cc(-c5ccc(OC)c(C67CC8CC(CC(C8)C6)C7)c5)ccc4c3)C(C)O2)C(C)C(OC2OC(C)CC(N(C)C)C2O)C(C)(O)CC(C)C(=O)C(C)C(O)C1(C)O` (stereo not shown) [Compound 32, 4″-Erythromycin A ester of 6-[3-(1-adamantyl)-4-methoxyphenyl]2-naphthoic acid], “leukemia, lymphoma”.

As for `COc1ccc(-c2cc3cc(C(=O)O)ccc3o2)cc1C12CC3CC(CC(C3)C1)C2` [Compound 16, 2-[3-(1-adamantyl)-4-methoxyphenyl]-5-benzofurancarboxylic acid], the “Types” value is “brain, breast, prostate”. The result for `O=C(O)c1ccc2cc(-c3cc(O)c(O)c(C45CC6CC(CC(C6)C4)C5)c3)ccc2c1` [Compound 36, 6-[3-(1-adamantyl)-4,5-dihydroxyphenyl]-2-naphthoic acid] reads “brain, head and neck, leukemia,; also recorded: lymphoma, myeloma, pancreatic”. Regarding `OCc1ccc2cc(-c3ccc(O)c(C45CC6CC(CC(C6)C4)C5)c3)ccc2c1` [Compound 14, 6-[3-(1-adamantyl)-4-hydroxyphenyl]-2-hydroxymethylnaphthalene], the “Types” value is “bladder, kidney, skin”. The result for `COc1ccc(-c2ccc3cc(C(=O)O)ccc3c2)cc1C12CC3CC(C)(CC(C)(C3)C1)C2` [Compound 42, 6-[3-(3,5-dimethyl-1-adamantyl)-4-methoxyphenyl]-2-naphthoic acid] reads “skin”. The result for `COc1cc(NC(=O)c2ccc(OC)c(C34CC5CC(CC(C5)C3)C4)c2)ccc1C(=O)O` [Compound 9, 4-[N-(3-(1-adamantyl)-4-methoxybenzoyl)amido]2-methoxybenzoic acid] reads “head and neck, kidney, ovarian, and skin”. Consider `COc1ccc(C(=O)Oc2ccc(C(=O)O)c(F)c2)cc1C12CC3CC(CC(C3)C1)C2` [Compound 20, 4-[3-(1-adamantyl)-4-methoxybenzoyloxy]-2-fluorobenzoic acid], for which the “Types” value is “lymphoma, skin”. Consider `O=C(c1ccc2cc(-c3cc4c(c(C56CC7CC(CC(C7)C5)C6)c3)OCO4)ccc2c1)N1CCNCC1` [Compound 46, N-{6-[3-(1-adamantyl)-4,5-methylenedioxy]-2-naphthalenecarboxoyl}piperazide], for which the “Types” value is “prostate, neuroblastoma,; also recorded: hepatoma”. The result for `COc1ccc(C(=N)Nc2ccc(C(=O)O)cc2)cc1C12CC3CC(CC(C3)C1)C2` [Compound 31, 3-(1-adamantyl)-4-methoxy-N-(4-carboxyphenyl)benzamidine] reads “leukemia”; that for `COc1ccc(-c2ccc3cc(C(=O)N4CCNCC4)ccc3c2)cc1C12CC3CC(CC(C3)C1)C2` [Compound 7, N-{6-[3-(1-adamantyl)-4-methoxyphenyl]-2-naphthalenecarboxoyl}piperizide], “brain, breast, head and neck,; also recorded: myeloma, prostate, skin”; that for `NC(=O)CCCCCOc1ccc(/C=C/c2ccc(C(=O)O)cc2)cc1C12CC3CC(CC(C3)C1)C2` [Compound 30, (E) 4-{2-[4-(6-aminocarbonylpentyloxy)-3-(1-adamantyl)phenyl]ethenyl}benzoic acid], “lymphoma, myeloma”. As for `COc1ccc(COc2ccc(C(=O)O)cc2)cc1C12CC3CC(CC(C3)C1)C2` [Compound 15, 4-[3-(1-adamantyl)-4-methoxybenzyloxy]benzoic acid], the “Types” value is reported as “breast, leukemia, prostate”. Regarding `COc1ccc(-c2ccc3cc(C(=O)O)ccc3c2)cc1C12CC3CC(CC(C)(C3)C1)C2` [Compound 41, 6-[3-(3-methyl-1-adamantyl)-4-methoxyphenyl]-2-naphthoic acid], the “Types” value is reported as “skin”. With `CCc1ccc(-c2ccc3cc(C(=O)O)ccc3c2)cc1C12CC3CC(CC(C3)C1)C2` [Compound 22, 6-[3-(1-adamantyl)-4-ethylphenyl]-2-naphthoic acid], the “Types” value was “breast, leukemia, myeloma”. Take `O=C(c1ccc2cc(-c3cc4c(c(C56CC7CC(CC(C7)C5)C6)c3)OCO4)ccc2c1)N1CCCNCC1` [Compound 47, N-{6-[3-(1-adamantyl)-4,5-methylenedioxy]-2-naphthalenecarboxoyl}homopiperazide]: the “Types” value is “bladder, neuroblastoma, cervix, and skin”.

With `COc1ccc(-c2nc3ccc(C)cc3[nH]2)cc1C12CC3CC(CC(C3)C1)C2` [Compound 10, 2-[3-(1-adamantyl)-4-methoxyphenyl]-5-methylbenzimidazole], the “Types” value was “leukemia, lymphoma, myeloma”.
